Here are results for 21 compounds from patent US12240839B2, “Cyclobutyl dihydroquinoline sulfonamide compounds” (AMGEN INC., priority 2020, dated 2025).

The first data set deals with CYP3A4. Nature of the data set: Human CYP3A4 induction assay (mRNA, cryopreserved human hepatocytes). Particulars: 10 uM test compound, 72 hours, percent of control (rifampin positive control).
As for `COc1cc(C2CCC2)ccc1-n1c(=O)ccc2cc(S(=O)(=O)Nc3ncco3)ccc21` (atropisomer, axis not shown; (P)) [Example 29, (P)-1-(4-cyclobutyl-2-methoxyphenyl)-N-(oxazol-2-yl)-2-oxo-1,2-dihydroquinoline-6-sulfonamide], the “Hu CYP3A4 mRNA Induction (10 uM POC)” value is listed as 34.63%. Still for that read-out and setting: for `COc1cc(C2CCC2)c(Cl)cc1-n1c(=O)ccc2cc(S(=O)(=O)Nc3ncco3)ccc21` (atropisomer, axis not shown; (P)) [Example 32, (P)-1-(5-chloro-4-cyclobutyl-2-methoxyphenyl)-N-(oxazol-2-yl)-2-oxo-1,2-dihydroquinoline-6-sulfonamide] the value was 88%. Still for that read-out and setting: the value for `COc1cc(C2CCC2)c(C)cc1-n1c(=O)ccc2cc(S(=O)(=O)Nc3ncco3)ccc21` (atropisomer, axis not shown; (P)) [Example 34, (P)-1-(4-cyclobutyl-2-methoxy-5-methylphenyl)-N-(oxazol-2-yl)-2-oxo-1,2-dihydroquinoline-6-sulfonamide] was 69.54%; that for `COc1cc([C@H]2C[C@H](C(F)(F)F)C2)ccc1-n1c(=O)ccc2cc(S(=O)(=O)Nc3ccon3)ccc21` (atropisomer, axis not shown; (P)) [Example 35, trans-(P)—N-(isoxazol-3-yl)-1-(2-methoxy-4-(3-(trifluoromethyl)cyclobutyl)phenyl)-2-oxo-1,2-dihydroquinoline-6-sulfonamide] was 13.33%. On the same count and under the same terms, the value for `COc1cc([C@H]2C[C@H](C(F)(F)F)C2)ccc1-n1c(=O)ccc2cc(S(=O)(=O)Nc3ncccn3)ccc21` (atropisomer, axis not shown; (P)) [Example 36, trans-(P)-1-(2-methoxy-4-((1R,3R)-3-(trifluoromethyl)cyclobutyl)phenyl)-2-oxo-N-(pyrimidin-2-yl)-1,2-dihydroquinoline-6-sulfonamide] was 19.16%.

Turning to `COc1cc([C@H]2C[C@H](C(F)(F)F)C2)ccc1-n1c(=O)ccc2cc(S(=O)(=O)Nc3cccnn3)ccc21` (atropisomer, axis not shown; (P)) [Example 38, trans-(P)-1-(2-methoxy-4-(3-(trifluoromethyl)cyclobutyl)phenyl)-2-oxo-N-(pyridazin-3-yl)-1,2-dihydroquinoline-6-sulfonamide], the “Hu CYP3A4 mRNA Induction (10 uM POC)” value is 4.43%. Consider `COc1cc([C@H]2C[C@H](C(F)(F)F)C2)c(F)cc1-n1c(=O)ccc2cc(S(=O)(=O)Nc3cccnn3)ccc21` (atropisomer, axis not shown; (P)) [Example 39, trans-(P)-1-(5-fluoro-2-methoxy-4-(3-(trifluoromethyl)cyclobutyl)phenyl)-2-oxo-N-(pyridazin-3-yl)-1,2-dihydroquinoline-6-sulfonamide], for which the “Hu CYP3A4 mRNA Induction (10 uM POC)” value is 21.68%. Still for that read-out and setting: for `COc1cc([C@H]2C[C@H](C(F)(F)F)C2)c(F)cc1-n1c(=O)ccc2cc(S(=O)(=O)Nc3ccon3)c(F)cc21` (atropisomer, axis not shown; (P)) [Example 40, (P)-7-fluoro-1-(5-fluoro-2-methoxy-4-((1R,3R)-3-(trifluoromethyl)cyclobutyl)phenyl)-N-(isoxazol-3-yl)-2-oxo-1,2-dihydroquinoline-6-sulfonamide] the value was 74.43%; for `COc1cc(C2CC(F)(F)C2)c(F)cc1-n1c(=O)ccc2cc(S(=O)(=O)Nc3ccon3)c(F)cc21` (atropisomer, axis not shown; (P)) [Example 41, (P)-1-(4-(3,3-difluorocyclobutyl)-5-fluoro-2-methoxyphenyl)-7-fluoro-N-(isoxazol-3-yl)-2-oxo-1,2-dihydroquinoline-6-sulfonamide], 52.8%; for `COc1cc(C23CC(C(F)(F)F)(C2)C3)c(F)cc1-n1c(=O)ccc2cc(S(=O)(=O)Nc3ccon3)ccc21` (atropisomer, axis not shown; (P)) [Example 42, (P)-1-(5-fluoro-2-methoxy-4-(3-(trifluoromethyl)bicyclo[1.1.1]pentan-1-yl)phenyl)-N-(isoxazol-3-yl)-2-oxo-1,2-dihydroquinoline-6-sulfonamide], 19.25%. Same read-out and setting: for `COc1cc([C@H]2C[C@H](C(F)(F)F)C2)c(F)cc1-n1c(=O)ccc2cc(S(=O)(=O)Nc3ncco3)ccc21` (atropisomer, axis not shown; (P)) [Example 43, (P)-1-(5-fluoro-2-methoxy-4-(3-(trifluoromethyl)cyclobutyl)phenyl)-N-(oxazol-2-yl)-2-oxo-1,2-dihydroquinoline-6-sulfonamide] the value was 68.28%. With `COc1cc([C@H]2C[C@H](C(F)(F)F)C2)c(F)cc1-n1c(=O)ccc2c(F)c(S(=O)(=O)Nc3ccon3)ccc21` (atropisomer, axis not shown; (P)) [Example 46, trans-(P)-5-fluoro-1-(5-fluoro-2-methoxy-4-(3-(trifluoromethyl)cyclobutyl)phenyl)-N-(isoxazol-3-yl)-2-oxo-1,2-dihydroquinoline-6-sulfonamide], the “Hu CYP3A4 mRNA Induction (10 uM POC)” value is on record as 6.6%.

Consider `COc1cc(C23CC(C(F)(F)F)(C2)C3)c(F)cc1-n1c(=O)ccc2cc(S(=O)(=O)Nc3ncccn3)ccc21` (atropisomer, axis not shown; (P)) [Example 47, (P)-1-(5-fluoro-2-methoxy-4-(3-(trifluoromethyl)bicyclo[1.1.1]pentan-1-yl)phenyl)-2-oxo-N-(pyrimidin-2-yl)-1,2-dihydroquinoline-6-sulfonamide], for which the “Hu CYP3A4 mRNA Induction (10 uM POC)” value worked out at 19.64%. Same read-out and setting: the value for `COc1cc(C2CC(F)(F)C2)c(Cl)cc1-n1c(=O)ccc2cc(S(=O)(=O)Nc3ccon3)ccc21` (atropisomer, axis not shown; (P)) [Example 48, (P)-1-(5-chloro-4-(3,3-difluorocyclobutyl)-2-methoxyphenyl)-N-(isoxazol-3-yl)-2-oxo-1,2-dihydroquinoline-6-sulfonamide] was 110.2%; that for `COc1cc([C@H]2C[C@H](C(F)(F)F)C2)c(Cl)cc1-n1c(=O)ccc2cc(S(=O)(=O)Nc3ncco3)ccc21` (atropisomer, axis not shown; (P)) [Example 49, trans (P)-1-(5-chloro-2-methoxy-4-((1R,3R)-3-(trifluoromethyl)cyclobutyl)phenyl)-N-(oxazol-2-yl)-2-oxo-1,2-dihydroquinoline-6-sulfonamide] was 64.94%; that for `COc1cc([C@H]2C[C@@H](C(F)(F)F)C2)c(F)cc1-n1c(=O)ccc2cc(S(=O)(=O)Nc3ccon3)ccc21` (single isomer, unassigned) [Example 6, cis-(P)-1-(5-fluoro-2-methoxy-4-(3-(trifluoromethyl)cyclobutyl)phenyl)-N-(isoxazol-3-yl)-2-oxo-1,2-dihydroquinoline-6-sulfonamide] was 83.89%. Same read-out and setting: for `COc1cc([C@H]2C[C@H](C(F)(F)F)C2)c(Cl)cc1-n1c(=O)ccc2cc(S(=O)(=O)Nc3ccon3)ccc21` (single isomer, unassigned) [Example 12] the value was 68.98%; for `COc1cc([C@H]2C[C@H](OC(F)(F)F)C2)c(F)cc1-n1c(=O)ccc2cc(S(=O)(=O)Nc3ccon3)ccc21` (single isomer, unassigned) [Example 45, trans-(P)-1-(5-fluoro-2-methoxy-4-(3-(trifluoromethoxy)cyclobutyl)phenyl)-N-(isoxazol-3-yl)-2-oxo-1,2-dihydroquinoline-6-sulfonamide], 36.685%; for `COc1cc(C2CC2)c(F)cc1-n1c(=O)ccc2cc(S(=O)(=O)Nc3ccon3)ccc21` [Compound X, 1-(4-cyclopropyl-5-fluoro-2-methoxyphenyl)-N-(isoxazol-3-yl)-2-oxo-1,2-dihydroquinoline-6-sulfonamide, reference compound], 84.31%.

The target of the next data set is Human Nav1.7 (Homo sapiens (Human), UniProt Q15858). In words: IonWorks Barracuda (IWB) automated patch clamp assay. In kind it is cell-based. Particulars: human Nav1.7 in HEK cells, population patch-clamp, state- and use-dependent voltage protocol; read-out: hNaV1.7 IWB-U IC50. As to the method: IonWorks Barracuda (IWB) Automated Patch Clamp Assay (Same Protocol for Both Human and Mouse)
Sequence of Human Nav1.7 (Q15858 whole entry): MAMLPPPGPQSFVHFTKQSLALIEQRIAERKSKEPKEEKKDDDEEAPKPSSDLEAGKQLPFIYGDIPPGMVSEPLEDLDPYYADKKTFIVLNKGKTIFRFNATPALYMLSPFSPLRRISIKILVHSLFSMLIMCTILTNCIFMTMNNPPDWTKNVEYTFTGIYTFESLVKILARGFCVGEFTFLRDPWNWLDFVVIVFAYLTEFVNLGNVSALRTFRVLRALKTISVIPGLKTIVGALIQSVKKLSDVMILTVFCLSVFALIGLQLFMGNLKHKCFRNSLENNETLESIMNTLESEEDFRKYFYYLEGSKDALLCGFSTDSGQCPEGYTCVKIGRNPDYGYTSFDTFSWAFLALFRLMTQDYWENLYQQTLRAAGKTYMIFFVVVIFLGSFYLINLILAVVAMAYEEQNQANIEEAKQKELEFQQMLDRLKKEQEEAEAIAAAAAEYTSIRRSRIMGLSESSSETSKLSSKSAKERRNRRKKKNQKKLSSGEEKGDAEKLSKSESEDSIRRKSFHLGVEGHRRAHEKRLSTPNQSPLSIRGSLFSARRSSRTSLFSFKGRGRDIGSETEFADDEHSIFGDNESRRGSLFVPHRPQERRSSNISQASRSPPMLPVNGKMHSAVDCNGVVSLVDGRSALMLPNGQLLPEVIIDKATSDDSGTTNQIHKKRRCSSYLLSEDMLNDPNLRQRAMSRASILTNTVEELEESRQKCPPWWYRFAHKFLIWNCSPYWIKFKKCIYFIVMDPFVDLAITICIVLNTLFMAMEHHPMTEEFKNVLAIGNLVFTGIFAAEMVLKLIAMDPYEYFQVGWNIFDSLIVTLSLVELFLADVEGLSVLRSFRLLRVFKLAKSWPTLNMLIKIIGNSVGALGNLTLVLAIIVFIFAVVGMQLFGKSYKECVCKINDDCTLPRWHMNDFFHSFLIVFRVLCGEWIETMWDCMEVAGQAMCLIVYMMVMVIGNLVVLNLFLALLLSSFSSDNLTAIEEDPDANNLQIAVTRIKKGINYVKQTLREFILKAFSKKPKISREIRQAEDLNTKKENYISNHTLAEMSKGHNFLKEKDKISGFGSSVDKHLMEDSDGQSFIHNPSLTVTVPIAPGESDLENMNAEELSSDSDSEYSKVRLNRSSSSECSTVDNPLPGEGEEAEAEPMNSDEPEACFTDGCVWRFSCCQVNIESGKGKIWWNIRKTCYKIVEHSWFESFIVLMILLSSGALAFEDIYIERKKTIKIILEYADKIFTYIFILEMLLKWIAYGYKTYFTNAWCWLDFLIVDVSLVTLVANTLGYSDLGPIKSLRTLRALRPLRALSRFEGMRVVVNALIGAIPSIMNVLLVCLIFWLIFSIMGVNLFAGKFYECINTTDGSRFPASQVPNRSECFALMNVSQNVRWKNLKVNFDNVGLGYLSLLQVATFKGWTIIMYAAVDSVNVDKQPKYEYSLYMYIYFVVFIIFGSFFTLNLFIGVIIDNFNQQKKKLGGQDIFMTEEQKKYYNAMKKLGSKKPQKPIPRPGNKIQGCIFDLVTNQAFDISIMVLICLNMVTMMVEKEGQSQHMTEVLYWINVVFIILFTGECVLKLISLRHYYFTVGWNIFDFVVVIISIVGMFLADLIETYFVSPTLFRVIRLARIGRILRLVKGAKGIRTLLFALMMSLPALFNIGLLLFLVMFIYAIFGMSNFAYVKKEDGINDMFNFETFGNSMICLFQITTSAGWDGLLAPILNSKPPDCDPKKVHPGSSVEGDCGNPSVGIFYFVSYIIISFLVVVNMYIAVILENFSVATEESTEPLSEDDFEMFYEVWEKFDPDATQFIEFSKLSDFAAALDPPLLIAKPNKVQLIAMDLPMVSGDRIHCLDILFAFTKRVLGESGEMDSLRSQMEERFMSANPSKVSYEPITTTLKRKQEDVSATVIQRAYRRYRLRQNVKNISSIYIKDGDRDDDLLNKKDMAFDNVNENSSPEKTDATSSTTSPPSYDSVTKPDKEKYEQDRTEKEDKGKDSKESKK
Human Nav1.7 currents were recorded in population patch-clamp mode with the IWB automated electrophysiology system (Molecular Devices, LLC, Sunnyvale, CA). Spiking HEK cells (without Kir2.1 transfection) were cultured and prepared for recordings as previously described for IonWorks Quattro testing^1. The external solution consisted of the following (in mM): NaCl 140, KCl 5, CaCl2 2, MgCl2 1, HEPES 10, and glucose 11, pH 7.4, with N-methyl-D-glucamine at 320 mOsmol. […] From a holding potential of −110 mV, currents were elicited by a train of 26 depolarizations of 150 ms duration to −20 mV at a frequency of 5 Hz. Cells were then clamped to −20 mV for a period of 4 minutes in the presence of a single concentration of test compound. Following this compound incubation period, cells were clamped to −110 mV for three seconds to recover unbound channels and put through the same 26 pulse voltage protocol as above. Peak inward current during the 26th pulse to −20 mV in the presence of compound was divided by the peak inward current evoked by the 26th pulse to −20 mV in the absence of compound to determine percent inhibition. Concentration-response curves of percent inhibition as a function of concentration were generated to calculate IC50 values as described in Kornecook, T. J.; Yin, R.; Altmann, S.; et al. Pharmacologic Characterization of AMG8379, a Potent and Selective Small Molecule Sulfonamide Antagonist of the Voltage-Gated Sodium Channel NaV1. 7.
The potency of the compounds of the present invention were evaluated on human Nav1.7 channels using the above described IonWorks Barracuda automated electrophysiology platform that evaluates the ability of compounds to block sodium conductance through Nav1.7 channels. A voltage-protocol that prosecutes both state-dependent as well as use-dependent inhibition was used as these modes of action are thought to be more relevant for the native state of Nav1.7 channels in pain sensing neurons in vivo.
For orientation: Patch clamp records ionic current or voltage across a cell membrane.
As a reminder, the IC50 is the point on the concentration scale where inhibition reaches its midpoint. On to `COc1cc(C2CC(C(F)(F)F)C2)c(F)cc1-n1c(=O)ccc2cc(S(=O)(=O)Nc3ccon3)ccc21` (atropisomer, axis not shown; (P)) [Example 6, cis-(P)-1-(5-fluoro-2-methoxy-4-(3-(trifluoromethyl)cyclobutyl)phenyl)-N-(isoxazol-3-yl)-2-oxo-1,2-dihydroquinoline-6-sulfonamide], for which the IC50 was 11 nM. Still for that read-out and setting: for `COc1cc(C2CC(C(F)(F)F)C2)c(Cl)cc1-n1c(=O)ccc2cc(S(=O)(=O)Nc3ccon3)ccc21` (atropisomer, axis not shown; (P)) [Example 12, cis-(P)-1-(5-chloro-2-methoxy-4-((1S,3S)-3-(trifluoromethyl)cyclobutyl)phenyl)-N-(isoxazol-3-yl)-2-oxo-1,2-dihydroquinoline-6-sulfonamide] the value was 7 nM.
